Test results published in US10905761B2, “Use of a lipopeptide or lipoprotein as an adjuvant in therapeutic or prophylactic vaccinations” (HELMHOLTZ-ZENTRUM FUER INFEKTIONSFORSCHUNG GMBH, priority 2002, dated 2021).
No end group written: not given here.

How the values were obtained:
[1] = test system: primary dendritic cells from the bone marrow of BALB/c mice; test: In vitro stimulation of primary dendritic cells; […]; format: cell-based
[2] = test system: BALB/c (H-2d) mice; test: Cellular responses (spleen cell proliferation) after immunization with different MALP-2 doses (Example 3); format: in vivo; details: 1 μg MALP-2; spleen cells restimulated with β-galactosidase; day 28
Experimental: β-Galactosidase-specific T-cell proliferation responses of mouse spleen cells immunized by the i.p. or i.n. routes with either pure β-galactosidase (40 μg/dose) or β-galactosidase mixed with MAPL-2 (1 or 0.5 μg/dose) on days 0, 7 and 14. On day 28 after the primary immunization, the animals were sacrificed and the spleen cells were restimulated in vitro in the presence of 20 μg/ml soluble β-galactosidase for four days. The results are shown as stimulation indices (cpm of samples/cpm in unstimulated control cells).
Six- to eight-week old female BALB/c (H-2d) mice were purchased from Harlan Winkelmann GmbH (Borchen, Germany) and treated in accordance with local and EU directives. Groups each of 5 mice were immunized on day 1, 7 and 14 either with 40 μg of pure β-galactosidase (Boehringer, Mannheim, Germany), or with admixture of 1 or 0.5 μg of synthetic MALP-2. For the intranasal administration (i.n.), 10 μl was administered into each nostril, while for the i.p. injection β-galactosidase was resuspended with or without MALP-2 in 400 μl of PBS. […] The cells were then harvested on filter paper (Filtermat A; Wallac, Freiburg, Germany) with a cell harvester (Inotech, Wohlen, Switzerland), and the amount of [H]thymidine incorporated into the DNA of the proliferated cells was determined with the aid of a […] scintillation counter (Wallac 1450, Micro-Trilux). […]

[3] = test system: BALB/c (H-2d) mice; test: β-Galactosidase-specific IgA in lung and vaginal lavages of mice immunized i.n. (Example 5); format: in vivo
Experimental: The results are shown as percentage of β-galactosidase-specific IgA in relation to the total IgA present. The SEM is indicated by vertical lines.
The mice were sacrificed on day 31, and the final samples were taken. Vaginal and lung lavages were obtained by rinsing the organs with 1 ml of PBS supplemented by 50 mM EDTA, 0.1% BSA and 10 mM PMSF. The lavages were then centrifuged in order to remove tissue detritus (10 min at 3000×g) and the remaining liquid was stored at −20° C. In order to determine the total IgA concentration in the rinsings from lung and vagina, serial dilutions of the corresponding samples were incubated in microtiter plates, these plates having previously been coated with goat anti-mouse IgA (Sigma Chemie) as capture antibody (100 μl/well). Serial dilutions of purified mouse IgA (Sigma Chemie) were used to produce a standard plot.

[4] = test system: BALB/c (H-2d) mice; test: Oral immunization with β-galactosidase and MALP-2 as mucosal adjuvant (serum antibody ELISA, Example 9); format: in vivo; details: 100 μg β-gal with 2 μg MALP-2, days 1, 14, 21, 31, serum day 45
Experimental: FIG. 12: Humoral responses stimulated after vaccination with MALP-2 as adjuvant in a dose 2 μg per animal per immunization. The mice were immunized orally either with β-galactosidase alone (100 μg/dose) or with β-galactosidase mixed with MALP-2 (2 μg/dose) on […]. On day 45 after the first immunization, serum samples were obtained, and the titers of the β-galactosidase-specific antibodies were determined with an ELISA.
Six- to eight-week old female BALB/c (H-2d) mice were purchased from Harlan Winkelmann GmbH (Borchen, Germany) and treated in accordance with local guidelines and directives of the European Community. Groups each of 5 mice were immunized on days 1, 14, 21 and 31 with 100 μg of β-gal (Boehringer, Mannheim, Germany) either alone or with 2 μg of synthetic MALP-2 as adjuvant by the oral route (dose 25 μl). On day 45, serum samples were taken and stored at −20° C. until β-gal-specific antibodies were determined. 96-well Nunc-Immuno MaxiSorp® assay plates (Nunc, Roskilde, Denmark) were coated with 100 μl of β-gal at 5 μg/ml in 0.05 M carbonate buffer (pH 8.2) per well. […] The final value titers have been expressed as the reciprocal logarithmic log2 values of the last dilution which resulted, after incubation for 30 minutes, in an optical density at 405 nm of 0.1 units above the values for the negative controls.

With “S-[2,3-bispalmitoyloxypropyl]cysteinyl-GNNDESNISFKEK ({S‑(2,3-bispalmitoyloxypropyl)Cys}-GNNDESNISFKEK) [MALP-2]” the “effect on expression of costimulating molecule CD80 in dendritic cells” value ([1]; 5 ng/ml MALP-2, 12 and 24 hours) was “slight, if present at all”, the “expression of CD40 and costimulating molecule CD86 in dendritic cells” value ([1]; 5 ng/ml MALP-2, 12 and 24 hours, versus LPS positive control) was “not increased” and the “activation of primary dendritic cells” value ([1]; 5 ng/ml MALP-2, compared with LPS 10 ng/ml) was “only a very weak activation”. For the same substance, the “up regulation of CD40, CD80 and CD86 in dendritic cells” value ([1]; 10 ng/ml LPS or 5 ng/ml MALP-2) was “only a weak effect, or none”, the “cell-mediated immunization (spleen cell proliferation) at higher dose” value [2] was “cell-mediated immunization is reduced” and the “levels of β-galactosidase-specific antibodies in the mucous membranes, MALP-2 versus CTB” value ([3]; 0.5 μg MALP-2 versus 10 μg CTB, i.n.) was “No statistically significant differences”. For the same substance, the “antigen-specific IgA, based on the total IgA, in lung lavages” value ([3]; MALP-2 as adjuvant, i.n.) was 36%, the “antigen-specific IgA, based on the total IgA, in vaginal lavages” value ([3]; MALP-2 as adjuvant, i.n.) was 23% and the “β-galactosidase-specific IgA in lung rinsings” value ([3]; i.n. immunization, day 31) was “significant increase”. The “β-galactosidase-specific IgA in vaginal rinsings” value ([3]; i.n. immunization, day 31) was “significant concentrations” and the “serum immune responses to β-gal after oral immunization” value [4] was “Immune responses to β-gal were observed”.
